In brackets after ≈: the same amount, converted by molar mass. Counter-ions that a name gives are not always drawn.
Tests used:
[1] = system: E. coli MC4100 imp4213 (imp) strain; assay: MIC of lead compounds on the imp strain, microdilution method in 96-well plates; assay type: cell-based
Text: With the aim of finding antibiotics with novel MOAs, an unbiased whole-cell screening approach was applied. To include antibiotics that target either gram-negative and gram-positive bacteria, compounds were screened that inhibited growth of the E. coli MC4100 imp4213 (imp) strain, which has a compromised OM that makes it permeable to antibiotics that would otherwise not penetrate the gram-negative lipolysaccheride (LPS). […] unique compounds spanning 5 libraries were screened, with 32,343 compounds represented once, 923 duplicates, 114 triplicates, 12 quadruplicates and 2 compounds represented five times, all at the concentration of 50 uM in DMSO.
From the 186 unique hits, 32 lead compounds were selected that either had not been identified as antibiotics or had unknown or ambiguous MOAs for further investigation. To understand the potency of these compounds, their minimum inhibitory concentration (MIC) was measured on the imp strain using the microdilution method in 96-well plates.

[2] = system: Clostridium difficile ATCC BAA-1875; assay: MIC against panel of clinically important pathogens: C. difficile; assay type: cell-based; settings: Clostridioides difficile, ATCCBAA1875, read-out: MIC (inhibiting concentration), C. difficile
Description: (§1) In an effort to understand how effective these 8, possibly novel, antibiotics might be in treating infections, their MICs against a panel of 22 clinically important pathogens shown in Table II were measured. In addition, the MICs of 3 other compounds of interest, rivaroxaban, AZT, and triflupromazine, were measured which were associated with specific drug classes. Of particular interest, ONO-RS-82 inhibited C. difficile and N. gonorrhoeae with at concentrations of 2 μg/ml and 0.25 μg/ml respectively.

[3] = system: Neisseria gonorrhoeae CCUG57598; assay: MIC against panel of clinically important pathogens: N. gonorrhoeae; assay type: cell-based; settings: read-out: MIC (inhibiting concentration), N. gonorrhoeae
Description: as §1

[4] = system: Enterococcus faecium ATCC BAA-2320; assay: MIC against panel of clinically important pathogens: E. faecium; assay type: cell-based; settings: ATCCBAA2320, read-out: MIC (inhibiting concentration), E. faecium
Description: as §1

[5] = system: methicillin resistant S. aureus (NARSA NRS384); assay: MIC against panel of clinically important pathogens: methicillin resistant S. aureus; assay type: cell-based; settings: Staphylococcus aureus, read-out: MIC (inhibiting concentration), methicillin resistant S. aureus
Description: as §1

[6] = system: Cpx envelope stress response (cpxP); assay: cpxP expression (Cpx envelope stress response activation); assay type: cell-based, E. coli MC4100 wild type; settings: drug at one to one-half the MIC (AGAs and chloramphenicol 5 μg/ml, triflupromazine 50 μg/ml)
Text: Thus, that the three AGAs fell into a distinct neighborhood not similar to the other ribosome-targeting antibiotics was unsurprising.

[7] = system: B. subtilis essential gene knockdown library (folC, folA); assay type: cell-based
Text: The classical method of identifying the molecular target of an antibiotic is by selecting for antibiotic resistant mutants. However, SCH resistant mutants were not easily identified. A potential reason for this may be that SCH has multiple targets. To probe this hypothesis, a B. subtilis essential gene knockdown library was screened to select for strains that were sensitized to SCH (FIG. 12A). This library consists of ˜300 individual strains where the expression of each essential gene is repressed 3-fold by CRISPR interference (CRISPRi). This library was pinned onto agar plates containing a sub-MIC dose of SCH and the relative fitness of each gene was measured (FIG. 12A). […]

[8] = system: folate metabolites in NCM 3722 E. coli cells; assay: Metabolomics and mass spectrometry of folate metabolites; assay type: cell-based
ΔthyA lptD4213 cells = assay: Susceptibility of ΔthyA cells; assay type: cell-based, E. coli; settings: supplemented with exogenous Thymine
Description: To test this hypothesis, the membrane potential and membrane permeability of lptD4213 cells were measured using the fluorescent dyes, DIOC2(3) and TO-PRO-3, and flow cytometry. DIOC2(3) is a cationic dye that accumulates in the cytoplasm of cells with an active membrane potential and shifts its fluorescence from red to green. The dye also stains the membrane of the cells in green and as a result the ratio of the red to green signals can provide a morphology and size independent measure of membrane potential (FIG. 14B). TO-PRO-3 is a nucleic acid stain that only stains cells with compromised membranes (FIG. 14B).

NCM 3722 E. coli cells = assay: MIC on NCM 3722 E. coli; assay type: cell-based; settings: NCM 3722 cells, Gutnick Minimal Media
[9] = E. coli MC4100 imp4213 (imp) strain, microdilution

CCCCCCCCCCCCCCC[C@H](O)[C@H](N)CO (racemic) [DL-erythro-dihydrosphingosine]
MIC [1, 9]: 12.5 µM

CCCCCc1ccc(C=CC(=O)Nc2cc(Cl)ccc2C(=O)O)cc1 [ONO-RS-082, 2-(p-amylcinnamoyl)amino-4-chlorobenzoic acid]
MIC ([1]; Escherichia coli): 3.12 µM | MIC [2]: 2 µg/mL (≈ 5.38 µM) | MIC [3]: 0.25 µg/mL (≈ 0.672 µM)

Bleomycin
MIC [1, 9]: 0.1 µM

O=C(NC[C@H]1CN(c2ccc(N3CCOCC3=O)cc2)C(=O)O1)c1ccc(Cl)s1 [Rivaroxaban, (S)-5-Chloro-N-((2-oxo-3-(4-(3-oxomorpholino)phenyl)oxazolidin-5-yl)methyl)thiophene-2-carboxamide]
MIC ([1]; Escherichia coli): 0.05 µM

Clc1ccc(C(c2ccc(Cl)cc2)n2cc[n+](CC(OCc3ccc(Cl)cc3Cl)c3ccc(Cl)cc3Cl)c2)cc1.[Cl-] (stereo not shown) [Calmidazolium chloride, 1-[bis(4-Chlorophenyl)methyl]-3-[2-(2,4-dichlorophenyl)-2-(2,4-dichlorobenzyloxy)ethyl]-1H-imidazolium chloride]
MIC ([1]; Escherichia coli): 3.12 µM | MIC [3]: < 1 µg/mL | MIC [4]: < 1 µg/mL | MIC [5]: < 1 µg/mL

CC(=O)[C@]1(O)Cc2c(O)c3c(c(O)c2[C@@H](O[C@H]2C[C@H](N)[C@H](O)[C@H](C)O2)C1)C(=O)c1ccccc1C3=O [Idarubicin]
MIC ([1]; Escherichia coli): 25 µM

CN(C)CCCN1c2ccccc2Sc2ccc(C(F)(F)F)cc21 [Triflupromazine, N,N-dimethyl-3-[2-(trifluoromethyl)phenothiazin-10-yl]propan-1-amine]
MIC ([1]; Escherichia coli): 25 µM | cpxP expression [6]: induced cpxP expression

CC(=O)OC[C@H]1O[C@@H]([S-])[C@H](OC(C)=O)[C@@H](OC(C)=O)[C@@H]1OC(C)=O.CCP(CC)CC.[Au+] [Auranofin]
MIC [1, 9]: 6.25 µM

CN[C@@H]1[C@@H](O[C@H]2O[C@H](CO)[C@@H](N)[C@H](O)[C@H]2O)OC2C[C@@H](N)[C@@H](O[C@H]3[C@H](O)[C@@H](O)[C@H](N)C[C@@H]3N)OC2[C@@H]1O (stereo partly shown) [apramycin]
cpxP expression [6]: induced cpxP expression

COc1cccc(C2(O)CCCCC2CN(C)C)c1 (stereo not shown) [Tramadol hydrochloride]
MIC ([1]; Escherichia coli): 6.25 µM

CCCCC(CC)CNC(=N)NC(=N)NCCCCCCNC(=N)NC(=N)NCC(CC)CCCC (stereo not shown) [Alexidine hydrochloride]
MIC ([1]; Escherichia coli): 12.5 µM

COc1cc(Cc2cnc(N)nc2N)cc(OC)c1OC [Trimethoprim]
sensitivity of dihydrofolate reductase (folA) knockdown ([7]; sub-MIC / sub-lethal dose): sensitized | sensitivity of dihydrofolate synthetase (folC) knockdown ([7]; sub-MIC / sub-lethal dose on agar, confirmed in liquid): sensitized | metabolic response characteristic of FolA inhibition ([8]; NCM 3722 cells): also observed | susceptibility of ΔthyA lptD4213 cells (ΔthyA lptD4213 cells): resistant to high levels

CC[n+]1c(-c2ccccc2)c2cc(N)ccc2c2ccc(N)cc21 [Homidium bromide]
MIC ([1]; Escherichia coli): 25 µM

O=C1Nc2ccc(I)cc2C1=Cc1cc(Br)c(O)c(Br)c1 [GW5074, 3-(3,5-dibromo-4-hydroxybenzyliden)-5-iodo-1,3-dihydroindol-2-one]
MIC ([1]; Escherichia coli): 6.25 µM

O=C(N[C@H](CO)[C@H](O)c1ccc([N+](=O)[O-])cc1)C(Cl)Cl [chloramphenicol]
cpxP expression [6]: did not

Cc1nc2ccccc2n1Cc1ccc(Cl)cc1 [Chlormidazole]
MIC ([1]; Escherichia coli): 25 µM

gentamicin
cpxP expression [6]: induced cpxP expression

O=c1[nH]c(=O)n([C@H]2C[C@H](O)[C@@H](CO)O2)cc1F [Floxuridine]
MIC ([1]; Escherichia coli): 6.25 µM

CC(C)c1ccc(Cn2ccc3c4c(N)nc(NC5CC5)nc4ccc32)cc1 [SCH 79797, N3-Cyclopropyl-7-[[4-(1-methylethyl)phenyl]methyl]-7H-pyrrolo[3,2-F]quinazoline-1,3-diamine dihydrochloride]
MIC ([1]; Escherichia coli): 25 µM | MIC (1× MIC) (NCM 3722 E. coli cells): 31.25 µM | dihydrofolate (DHF) levels versus normal DHF levels ([8]; 1× MIC for 15 minutes): approximately 10 fold

O=[N+]([O-])C(Br)(CO)CO [Bronopol]
MIC ([1]; Escherichia coli): 25 µM

Oc1ccc(Cl)cc1Cc1cc(Cl)ccc1O [Dichlorophen]
MIC ([1]; Escherichia coli): 12.5 µM

CC[n+]1c(C=CC=C2N(C)c3ccccc3C2(C)C)sc2ccccc21 [AC-93253 iodide, 2-[3-(1,3-dihydro-1,3,3-trimethyl-2H-indol-2-ylidene)-1-propenyl]-3-ethyl-benzothiazolium iodide]
MIC ([1]; Escherichia coli): 6.25 µM

O=S(=O)(NCCNCC=Cc1ccc(Br)cc1)c1cccc2cnccc12 [H 89 dihydrochloride, N-[2-(p-Bromocinnamylamino)ethyl]-5-isoquinolinesulfonamide dihydrochloride]
MIC ([1]; Escherichia coli): 12.5 µM
